These results are taken from patent publication US5075287A, “Muramyl peptide derivatives and immunoregulating compositions containing them” (priority 1989, dated 1991).

Experiment [1] has as its system hepatitis B virus surface antigen (HBs). Briefly: Hepatitis-vaccine enhancing activity (adjuvant activity): anti-HBs IgG in mouse serum by ELISA. To be noted: Experiment 2, 2000-fold dilution. The format is in vivo, female CDF1 mice. The protocol:
A compound of the present invention was dissolved in lipidmicrosphere (1 mg/ml). On the other hand, a solution of hepatitis B virus surface antigen (HBs) in physiological saline was prepared (50 μg/ml). The above solutions in equal amounts were mixed to prepare a test solution. A control solution was prepared by the exclusion of the compound of the present invention from said test solution. A mixture of a suspension of aluminium hydroxide gel in physiological saline (1 mg/ml) and said hepatitis vaccine preparation in equal amounts was prepared as another control solution. The test solution (0.2 ml) was intraperitoneally administered to each mouse in one group consisting of seven female CDF1 mice.
Blood samples were collected from the fundus ocluli vein of each mouse every week after the administration and then centrifuged to obtain serums. Three weeks after the administration, 0.2 ml of the test liquid was intraperitoneally administered again to each mouse for secondary stimulation. Then blood collecting was conducted every week to obtain serums after the application of the secondary stimulation, in the same manner as that described above.
The amount of the IgG antibodies against the hepatitis B virus surface antigens (HBs) in the serums thus obtained was determined with an ELISA method.
Background: ELISA stands for enzyme-linked immunosorbent assay.

For experiment [2], the system named is influenza HA vaccine (B/Nagasaki/1/87 strain). The format is in vivo, female CDF1 mice. To be noted: Experiment 2, 8000-fold dilution.
[3] abbreviates: 4 W (after secondary stimulation at 3 weeks).
Where [4] appears, read: 5 W (after secondary stimulation at 3 weeks).

Structures are written as SMILES. Where two headings read alike, the source gives them in different places.

For `CCCCCCCCCCCCCCCC(=O)O[C@H](CCCCCCCCCCC)CC(=O)O[C@H]1O[C@H](CO)[C@@H](O)[C@H](O[C@H](C)C(=O)N[C@@H](C)C(=O)N[C@H](CCC(=O)OC)C(N)=O)[C@H]1NC(C)=O` [Example 17, N-[2-0-{2-Acetamido-2,3-dideoxy-1-0-((3R)-3-hexadecanoyloxytetradecanoyl)-α-D-glucopyranos-3-yl}-D-lactoyl]-L-alanyl-D-isoglutamine methylester], the “Anti-HBs IgG antibody level in serum (ELISA absorbance at 415 nm)” value (“Anti-HBs IgG antibody level in serum” for short) in experiment [1] (1 W) is on record as 0.001 ± 0.004 O.D 415 nm; in experiment [1] (2 W) it was 0.026 ± 0.001 O.D 415 nm; in experiment [1] (3 W), 0.051 ± 0.001 O.D 415 nm; in experiment [1] (setting [3]), 0.642 ± 0.021 O.D 415 nm; in experiment [1] (setting [4]) it was 0.615 ± 0.021 O.D 415 nm. For the same molecule, the “Anti HA serum antigen value (average value ± S.D.)” value (shortened to “Anti HA serum antigen value”) in experiment [2] (1 W) amounted to 0.010 ± 0.002 O.D 415 nm; in experiment [2] (2 W) it was 0.122 ± 0.006 O.D 415 nm; in experiment [2] (3 W) it was 0.191 ± 0.001 O.D 415 nm; in experiment [2] (setting [3]), 0.611 ± 0.017 O.D 415 nm; in experiment [2] (setting [4]), 0.696 ± 0.014 O.D 415 nm.

Turning to `CCCCCCCCCCCCCCCCCC(=O)OC[C@H]1O[C@H](OC(=O)C[C@@H](CCCCCCCCCCC)OC(=O)CCCCCCCCCCCCCCC)[C@H](NC(C)=O)[C@@H](O[C@H](C)C(=O)N[C@@H](C)C(=O)N[C@H](CCC(=O)OC)C(N)=O)[C@@H]1O` [Example 18, N-[2-0-{2-Acetamido-2,3-dideoxy-6-0octadecanoyl-1-0-((3R)-3-hexadecanoyloxytetradecanoyl)-α-D-glucopyranos-3-yl}-D-lactoyl]-L-alanyl-D-isoglutamine methylester], the “Anti-HBs IgG antibody level in serum” value turned out to be 0 O.D 415 nm in experiment [1] (1 W); 0.035 ± 0.007 O.D 415 nm in experiment [1] (2 W); 0.050 ± 0.004 O.D 415 nm in experiment [1] (3 W); 0.481 ± 0.006 O.D 415 nm in experiment [1] (setting [3]); 0.375 ± 0.008 O.D 415 nm in experiment [1] (setting [4]). Besides, the “Anti HA serum antigen value” value in experiment [2] (1 W) turned out to be 0 O.D 415 nm; in experiment [2] (2 W), 0.052 ± 0.004 O.D 415 nm; in experiment [2] (3 W) it was 0.075 ± 0.001 O.D 415 nm; in experiment [2] (setting [3]), 0.370 ± 0.005 O.D 415 nm; in experiment [2] (setting [4]), 0.360 ± 0.001 O.D 415 nm.

`CCCCCCCCCCCCCCCC(=O)O[C@H](CCCCCCCCCCC)CC(=O)S[C@@H]1O[C@H](CO)[C@@H](O)[C@H](O[C@H](C)C(=O)N[C@@H](C)C(=O)N[C@H](CCC(=O)OC)C(N)=O)[C@H]1NC(C)=O` [Example 19]: the “Anti-HBs IgG antibody level in serum” value in experiment [1] (1 W) is on record as 0 O.D 415 nm; in experiment [1] (2 W) it was 0.023 ± 0.000 O.D 415 nm; in experiment [1] (3 W), 0.042 ± 0.001 O.D 415 nm; in experiment [1] (setting [3]), 0.536 ± 0.011 O.D 415 nm; in experiment [1] (setting [4]), 0.521 ± 0.012 O.D 415 nm. The “Anti HA serum antigen value” value is 0 O.D 415 nm in experiment [2] (1 W); 0.125 ± 0.003 O.D 415 nm in experiment [2] (2 W); 0.187 ± 0.001 O.D 415 nm in experiment [2] (3 W); 0.872 ± 0.002 O.D 415 nm in experiment [2] (setting [3]); 0.936 ± 0.006 O.D 415 nm in experiment [2] (setting [4]).
